The results in this text go back to ChEMBL document CHEMBL3244272, “Folate antagonists. 15. 2,3-Diamino-6-(2-naphthylsulfonyl)quinazoline and related 2,4-diamino-6-[(phenyl and naphthyl)sulfinyl and sulfonyl]quinazolines, a potent new class of antimetabolites with phenomenal antimalarial activity” (J Med Chem, 1979).

≈ marks a conversion by molar mass, not a printed value. Calls of active or inactive are those of the source. The rule behind the calls is not given here.

The test system of data set [1] is Pseudomonas aeruginosa. Briefly: Antibacterial activity against Pseudomonas aeruginosa 28 assessed as growth inhibition. It is filed as functional.
The test system of data set [2] is Plasmodium berghei. The experiment in a line: Antimalarial activity against trophozoite-induced Plasmodium berghei infected in sc dosed mouse assessed as minimum curative dose. It is filed as functional.
Data set [3] concerns Enterococcus faecalis. The experiment in a line: Antibacterial activity against Streptococcus faecalis MGH-2 assessed as growth inhibition. Format: functional.
The subject of data set [4] is Mycobacterium tuberculosis. Briefly: Antibacterial activity against Mycobacterium tuberculosis H37Rv assessed as growth inhibition. Format: functional.
The test system of data set [5] is Plasmodium berghei. Briefly: Antimalarial activity against trophozoite-induced Plasmodium berghei infected in mouse assessed as change in mean survival time at 80 mg/kg, sc single dose after 72 hrs of infection. Format: functional. As to conditions: route subcutaneous.
In data set [6] the test system is Plasmodium gallinaceum. The experiment in a line: Antimalarial activity against trophozoite-induced Plasmodium gallinaceum infected in chick assessed as mean survival time at 120 mg/kg, sc single dose (reference value: 4 days). It is filed as functional. As to conditions: route subcutaneous.
In data set [7] the test system is Staphylococcus aureus. Briefly: Antibacterial activity against Staphylococcus aureus UC-76 assessed as growth inhibition. Format: functional.
For data set [8], the system named is Plasmodium gallinaceum. Briefly: Antimalarial activity against trophozoite-induced Plasmodium gallinaceum infected in chick assessed as cured at 120 mg/kg, sc single dose. It is filed as functional, organism-based. The arrangement: dose 120 mg/kg.
Data set [9] deals with Shigella sonnei. The experiment in a line: Antibacterial activity against Shigella sonnei C-10 assessed as growth inhibition. Format: functional.
Data set [10] concerns Gallus gallus. Briefly: Toxicity in trophozoite-induced Plasmodium gallinaceum infected in chick assessed as death at 120 mg/kg, sc single dose measured within 48 hrs. It is filed as organism-based. The arrangement: dose 120 mg/kg, route subcutaneous. As to conditions: chicken, in vivo.
For data set [11], the system named is Plasmodium berghei. Briefly: Antimalarial activity against trophozoite-induced Plasmodium berghei infected in mouse assessed as change in mean survival time at 40 mg/kg, sc single dose after 72 hrs of infection. Format: functional. As to conditions: route subcutaneous.
The test system of data set [12] is Plasmodium berghei. The experiment in a line: Antimalarial activity against trophozoite-induced Plasmodium berghei infected in mouse assessed as change in mean survival time at 160 mg/kg, sc single dose after 72 hrs of infection. As to conditions: route subcutaneous. Format: functional.
Data set [13] deals with Plasmodium berghei. The experiment in a line: Antimalarial activity against trophozoite-induced Plasmodium berghei infected in mouse assessed as change in mean survival time at 20 mg/kg, sc single dose after 72 hrs of infection. Format: functional. As to conditions: route subcutaneous.
In data set [14] the test system is Escherichia coli. Briefly: Antibacterial activity against Escherichia coli Vogel assessed as growth inhibition. It is filed as functional.
The subject of data set [15] is Staphylococcus aureus. Briefly: Antibacterial activity against Staphylococcus aureus S18713 assessed as growth inhibition. It is filed as functional.
Data set [16] has as its system Plasmodium berghei. The experiment in a line: Antimalarial activity against trophozoite-induced Plasmodium berghei infected in mouse assessed as change in mean survival time at 10 mg/kg, sc single dose after 72 hrs of infection. As to conditions: route subcutaneous. It is filed as functional.
Data set [17] deals with Plasmodium gallinaceum. The experiment in a line: Antimalarial activity against sporozoite-induced Plasmodium gallinaceum infected in chick assessed as change in cured at 60 mg/kg, sc single dose. It is filed as functional. As to conditions: route subcutaneous.
Data set [18] deals with Plasmodium gallinaceum. The experiment in a line: Antimalarial activity against sporozoite-induced Plasmodium gallinaceum infected in chick assessed as change in cured at 30 mg/kg, sc single dose. Format: functional. As to conditions: route subcutaneous.
Data set [19] relates to Plasmodium berghei. Briefly: Antimalarial activity against trophozoite-induced Plasmodium berghei infected in mouse assessed as change in mean survival time at 320 mg/kg, sc single dose after 72 hrs of infection. It is filed as functional. As to conditions: route subcutaneous.
Data set [20] deals with Plasmodium gallinaceum. Briefly: Antimalarial activity against sporozoite-induced Plasmodium gallinaceum infected in chick assessed as change in cured at 15 mg/kg, sc single dose. As to conditions: route subcutaneous. It is filed as functional.
The test system of data set [21] is Plasmodium falciparum. The experiment in a line: Antimalarial activity against Plasmodium falciparum Vietnam Smith in po once daily dosed Owl monkey assessed as curative dose compound treated for 7 days. It is filed as functional.
Data set [22] deals with Plasmodium falciparum. The experiment in a line: Antimalarial activity against Plasmodium falciparum Vietnam Oak Knoll in po once daily dosed Owl monkey assessed as curative dose compound treated for 7 days. Format: functional.
The test system of data set [23] is Plasmodium falciparum. The experiment in a line: Antimalarial activity against chloroquine-sensitive, pyrimethamine-resistant Plasmodium falciparum Malayan Camp CH/Q infected in Aotus monkey assessed as dose required to >50% cures compound treated for 7 days. It is filed as functional.
Data set [24] deals with Plasmodium falciparum. The experiment in a line: Antimalarial activity against Plasmodium falciparum Malayan Camp CH/Q infected in po once daily dosed Owl monkey assessed as curative dose compound treated for 7 days. It is filed as functional.
Data set [25] concerns Plasmodium vivax. Briefly: Antimalarial activity against Plasmodium vivax VietnamPalo Alto in po once daily dosed Owl monkey assessed as curative dose compound treated for 7 days. Format: functional.
Data set [26] has as its system Plasmodium falciparum. Briefly: Antimalarial activity against chloroquine-resistant, pyrimethamine-sensitive Plasmodium falciparum Vietnam Oak Knoll in Aotus monkey assessed as dose required to >50% cures compound treated for 7 days. Format: functional.
Data set [27] has as its system Plasmodium vivax. The experiment in a line: Antimalarial activity against Plasmodium vivax New Guinea Chesson in po once daily dosed Owl monkey assessed as curative dose compound treated for 7 days. Format: functional.
Data set [28] has as its system Plasmodium gallinaceum. Briefly: Antimalarial activity against trophozoite-induced Plasmodium gallinaceum infected in chick assessed as cured at 5 mg/kg, sc single dose. It is filed as functional, organism-based. The arrangement: dose 5 mg/kg.
Data set [29] deals with Gallus gallus. The experiment in a line: Toxicity in trophozoite-induced Plasmodium gallinaceum infected in chick assessed as death at 5 mg/kg, sc single dose measured within 48 hrs. The arrangement: dose 5 mg/kg, route subcutaneous. As to conditions: chicken, in vivo. It is filed as organism-based.
The test system of data set [30] is Plasmodium gallinaceum. Briefly: Antimalarial activity against trophozoite-induced Plasmodium gallinaceum infected in chick assessed as mean survival time at 40 mg/kg, sc single dose (reference value: 4 days). Format: functional. As to conditions: route subcutaneous.
For data set [31], the system named is Gallus gallus. The experiment in a line: Toxicity in trophozoite-induced Plasmodium gallinaceum infected in chick assessed as death at 20 mg/kg, sc single dose measured within 48 hrs. Format: organism-based. The arrangement: dose 20 mg/kg, route subcutaneous. As to conditions: chicken, in vivo.
Data set [32] has as its system Plasmodium gallinaceum. Briefly: Antimalarial activity against trophozoite-induced Plasmodium gallinaceum infected in chick assessed as mean survival time at 10 mg/kg, sc single dose (reference value: 4 days). It is filed as functional. As to conditions: route subcutaneous.
For data set [33], the system named is Plasmodium gallinaceum. Briefly: Antimalarial activity against trophozoite-induced Plasmodium gallinaceum infected in chick assessed as mean survival time at 2.5 mg/kg, sc single dose (reference value: 4 days). It is filed as functional. As to conditions: route subcutaneous.
The subject of data set [34] is Plasmodium gallinaceum. Briefly: Antimalarial activity against trophozoite-induced Plasmodium gallinaceum infected in chick assessed as cured at 2.5 mg/kg, sc single dose. Format: functional, organism-based. The arrangement: dose 2.5 mg/kg.
Data set [35] has as its system Gallus gallus. Briefly: Toxicity in trophozoite-induced Plasmodium gallinaceum infected in chick assessed as death at 40 mg/kg, sc single dose measured within 48 hrs. Format: organism-based. The arrangement: dose 40 mg/kg, route subcutaneous. As to conditions: chicken, in vivo.
Data set [36] relates to Plasmodium gallinaceum. The experiment in a line: Antimalarial activity against trophozoite-induced Plasmodium gallinaceum infected in chick assessed as mean survival time at 20 mg/kg, sc single dose (reference value: 4 days). It is filed as functional. As to conditions: route subcutaneous.
For data set [37], the system named is Gallus gallus. The experiment in a line: Toxicity in trophozoite-induced Plasmodium gallinaceum infected in chick assessed as death at 10 mg/kg, sc single dose measured within 48 hrs. It is filed as organism-based. The arrangement: dose 10 mg/kg, route subcutaneous. As to conditions: chicken, in vivo.
Data set [38] relates to Plasmodium berghei. The experiment in a line: Antimalarial activity against trophozoite-induced Plasmodium berghei infected in mouse assessed as change in mean survival time at 5 mg/kg, sc single dose after 72 hrs of infection. As to conditions: route subcutaneous. Format: functional.
The test system of data set [39] is Gallus gallus. Briefly: Toxicity in trophozoite-induced Plasmodium gallinaceum infected in chick assessed as death at 160 mg/kg, sc single dose measured within 48 hrs. It is filed as organism-based. The arrangement: dose 160 mg/kg, route subcutaneous. As to conditions: chicken, in vivo.
The test system of data set [40] is Gallus gallus. Briefly: Toxicity in trophozoite-induced Plasmodium gallinaceum infected in chick assessed as death at 2.5 mg/kg, sc single dose measured within 48 hrs. It is filed as organism-based. The arrangement: dose 2.5 mg/kg, route subcutaneous. As to conditions: chicken, in vivo.
The subject of data set [41] is Plasmodium berghei. Briefly: Antimalarial activity against trophozoite-induced Plasmodium berghei infected in mouse assessed as change in mean survival time at 1.25 mg/kg, sc single dose after 72 hrs of infection. Format: functional. As to conditions: route subcutaneous.
Data set [42] deals with Plasmodium berghei. Briefly: Antimalarial activity against trophozoite-induced Plasmodium berghei infected in mouse assessed as change in mean survival time at 2.5 mg/kg, sc single dose after 72 hrs of infection. Format: functional. As to conditions: route subcutaneous.
The test system of data set [43] is Plasmodium gallinaceum. The experiment in a line: Antimalarial activity against trophozoite-induced Plasmodium gallinaceum infected in chick assessed as mean survival time at 5 mg/kg, sc single dose (reference value: 4 days). It is filed as functional. As to conditions: route subcutaneous.
For data set [44], the system named is Gallus gallus. Briefly: Toxicity in trophozoite-induced Plasmodium gallinaceum infected in chick assessed as death at 80 mg/kg, sc single dose measured within 48 hrs. Format: organism-based. The arrangement: dose 80 mg/kg, route subcutaneous. As to conditions: chicken, in vivo.

In general, MIC refers to the least concentration at which growth counts as inhibited. As for `Nc1nc(N)c2cc([S+]([O-])c3c(F)c(F)cc(F)c3F)ccc2n1` (stereo not drawn), the MIC is more than 25 µg/mL in [1]; less than 0.25 µg/mL in data set [3]; 25 µg/mL (≈ 70.2 µM) in [4]; 1 µg/mL (≈ 2.81 µM) in data set [7]; more than 25 µg/mL in data set [9]; more than 25 µg/mL in data set [14]. Besides, the minimum inhibitory concentration (MIC) in [15] was 1.5 µg/mL (≈ 4.21 µM). The MCD in [2] was 80 mg/kg. In addition, the MST is 13.9 days in [5]; 14.8 days in data set [6]; 10.7 days in data set [11]; 16.7 days in [12]; 0.9 days in [13]; 0.5 days in data set [16]. Besides, the result in [8] was Active. The Activity result in data set [10] is recorded as “Toxic”.

On to `COc1cccc(S(=O)(=O)c2ccc3nc(N)nc(N)c3c2)c1`, for which the MIC in data set [1] is more than 25 µg/mL; in data set [3], less than 0.25 µg/mL; in [4], 25 µg/mL (≈ 75.7 µM); in data set [7], 1 µg/mL (≈ 3.03 µM); in data set [9], more than 25 µg/mL; in data set [14] it was 2.5 µg/mL (≈ 7.57 µM). Also, the minimum inhibitory concentration (MIC) in data set [15] was 2 µg/mL (≈ 6.05 µM). The MCD in [2] was 320 mg/kg. Moreover, the MST worked out at 12.5 days in data set [5]; 13.2 days in data set [6]; 0 days in data set [17]; 0 days in data set [18]; 8.9 days in [11]; 13.2 days in [12]. For the same compound, the MST in [19] is 23.9 days; in [13], 3.9 days; in data set [20], 0 days; in data set [16], 1.1 days. For the same compound, the outcome in data set [8] was Active. In addition, the Activity result in data set [10] is reported as “Toxic”.

Consider `CCN(CC)CCCC(C)Nc1ccnc2cc(Cl)ccc12` (stereo not drawn) [CHLOROQUINE], for which the CD90 in data set [21] is more than 20 mg/kg; in [22] it was 2 mg/kg; in [24], 5 mg/kg; in [25] it was 2.5 mg/kg; in data set [27], 2.5 mg/kg. Besides, the figures for the Activity in data set [23] and in data set [26] were 5 mg/kg and more than 20 mg/kg, respectively.

As to `Nc1nc(N)c2cc([S+]([O-])c3ccc(Cl)cc3)ccc2n1` (stereo not drawn), the MIC in data set [1] is more than 25 µg/mL; in [3], less than 0.25 µg/mL; in data set [7] it was less than 0.25 µg/mL; in data set [9] it was 20 µg/mL (≈ 62.7 µM); in data set [14] it was 1.5 µg/mL (≈ 4.71 µM); in [15] it was less than 0.25 µg/mL. In addition, in data set [2], the MCD was found to be 40 mg/kg. The outcome in [28] and in data set [34] was Active. The Activity result in data set [29], in data set [31], in [35], in data set [37], in data set [39] and in data set [40] was “Toxic” throughout. Also, in data set [44], the Activity entry was “Toxic”. Also, the MST was 27.5 days in data set [30]; 23 days in [32]; 4 days in [33]; 23 days in data set [36]; 4.8 days in [38]; 4.2 days in [41]. Also, the values for the MST in [42], in data set [16] and in data set [43] were 6 days, 7.3 days and 15.8 days, respectively.
